Data from patent US6841720B1, “Inducible promoters” (Biogemma UK LTD, priority 1998, dated 2005).
Read-outs that look alike come from different tables or passages of the source.

Columns and labels:
AoPRT-L mRNA = AoPRT-L mRNA accumulation in Asparagus (Northern hybridisation); type: in vivo, Asparagus officinalis; details: treated Asparagus
Text: In chopped etiolated A. officinalis seedlings (<=0.5 cm in length) the AoPRT-L transcript was detectable from 3 days after wounding (FIG. 3b).

[1] = tested on: extracellular aPR-5 proteins; details: leaf discs, cited from earlier work
[2] = tested on: AoPRT-L promoter-GUS fusion; experiment: AoPRT-L promoter-GUS expression in transgenic tobacco (fluorimetric GUS assay); type: in vivo, Nicotiana tabacum (cv Samsun); details: for Induction of AoPRT-L promoter-GUS by wound signals: transgenic tobacco, summary statement; for AoPRT-L-promoter-GUS expression after infiltration of pro-oxidant: infiltrated into leaf panels, over the concentration range tested; for Induction of AoPRT-L promoter-GUS fusion: root-fed 3 days, leaf cores; for Time-dependent induction of AoPRT-L promoter-GUS fusion: treatment with 1 mM, time course
Protocol: The AoPRT-L promoter construct (p22-GUS(INT) Bin 19) was transformed into Nicotiana tabacum (cv Samsun) using standard Agrobacterium tumefaciens-mediated transformation techniques (Draper et al., (1988): Plant Genetic Transformation and Gene Expression—A Laboratory Manual. Blackwell Scientific Publications, Oxford, UK). The expression of the GUS gene driven by the AoPRT-L promoter was analysed using assays described previously (Draper et al., (1988) supra).
Plants were sprayed once, allowed to dry and then sprayed again on the same day (day 0). After 3 or 6 days leaf cores were taken and GUS activity was measured using a standard fluorimetric assay. […] Leaf cores from tobacco harbouring the AoPRT-L promoter fusion with GUS were floated for 3 or 6 days on water containing increasing concentrations of BTH after which time GUS activity in the leaf discs was measured fluorometrically.
Wounding of tobacco leaves (using the hammer method) or infection of tobacco with Pseudomonas syringae pathovar phaseolicola induces local accumulation of the wound-related phytohormone jasmonic acid (JA) (Kenton et al., submitted; Mur et al., (1997) Trends in Microbiol 5:297-300). Leaf cores from tobacco harbouring the AoPRT-L promoter fusion with GUS were floated for 3 days on water containing increasing concentrations of JA after which time GUS activity in the leaf discs was measured using a standard fluorimetric assay. […]
(§1) In order to test whether oxidative stress is likely to induce high levels of AoPRT-L promoter-driven gene expression, H2O2 was infiltrated into leaf panels of transgenic tobacco harbouring the AoPRT-L-promoter-GUS construct (FIG. 13a). […] However, H2O2 has a limited half-life (around 10 mins—Levine et al., (1994) Cell 79: 583-593) in the apoplast, thus the experiment was repeated using a stable peroxide, t-butyl-hydroperoxide (FIG. 13b).

AoPRT-L-GUS = AoPRT-L-GUS expression in transgenic maize; type: in vivo, Zea mays; details: treated with SA or BTH
Text: Maize plants containing AoPRT-L-GUS were produced by biolistic transformation of callus material with pJIT60-P22 GUS int.

AoPRT-Lx3 promoter-GUS = experiment: pAoPRT-Lx3-GUS expression in transgenic tobacco; type: in vivo, samsun tobacco; details: on SA or BTH induction
Text: In order to construct an AoPRT-L promoter that has higher expression, the region −247 bp to −133 bp was amplified from p22-JIT60 and placed twice in front of a −247 bp AoPRT-L promoter. This AoPRT-Lx3 promoter was constructed as follows: The primers below were used to PCR the 0 bp to −247 bp AoPRT-L promoter from p22-JIT60.
This fragment was cloned as a KpnI, XhoI fragment between the KpnI and SalI sites of the pUC19-derived plasmid forming pAoPRT-Lx2. The −133 bp to −247 bp pAoPRT-L fragment was then cloned as a KpnI, XhoI fragment between the KpnI and SalI sites of pAoPRT-Lx2 forming pAoPRT-Lx3 (FIG. 15c). Next the AoPRT-Lx3 promoter was cloned as an KpnI, PstI fragment into KpnI, PstI-cut p22-JIT60 forming pAoPRT-Lx3-JIT60. The pAoPRT-Lx3 was transferred from pAoPRT-L-x-JIT60 as a KpnI, BamHI fragment into KpnI, BamHI-cut p22-GUS (INT) JIT 60. Finally the resulting pAoPRT-Lx3 -GUS-CaMV poly A chimeric gene was cloned as KpnI, XhoI fragments into KpnI, SalI-cut pBin19 and transformed into samsun tobacco.

[3] = tested on: pGB24 (pAoPRT-L-LhG4 / pOP-GUS); experiment: pGB24 amplification construct GUS expression in tobacco; type: in vivo; details: on SA or BTH induction
Text: (§2) A way of increasing the activity of the AoPRT-L promoter whilst retaining tight regulation of the promoter is to use a system that will amplify expression of the AoPRT-L promoter. An amplification system was built using a transactivator (described in WO98/05789 and Moore et al., (1997) Proc. Natl. Acad. Sci. USA. 95, 379-381). The AoPRT-L promoter is linked to a synthetic transactivator (LhG4) and the target promoter of the transactivator (pOP) to the gene to be expressed. LhG4 consists of a mutated E. coli lacI gene fused to the transcriptional activator domain of the GALA from yeast. pOP910 is a minimal 35S CaMV promoter with two binding sites for the LhG4 protein. Since the transactivator can initiate multiple rounds of transcription from pOP, there is amplification of the initial signal that activated the AoPRT-L promoter.
(§3) The amplification system was constructed by the following steps. The pOP910 promoter was excised from pX-910TAG (K. Palme, Max Planck Institut fur Zuchtungsforchung, Koln, Germany) as a SstI-NcoI fragment and cloned into SstI,NcoI-cut pDH68 (pDH68 consists of a Pea Plastocyanin promoter (Pwee and Gray (1993) Plant J. 3, 437-449) linked to an intron GUS gene (D. Twell, Leicester University) cloned between the SstI and EcoRI sites of the vector pJIT30 (Guerineau et al., (1990) Plant Mol. Biol. 15, 127-136)). […]

[4] = tested on: pGB24 (pAoPRT-L-LhG4 / pOP-GUS); experiment: pGB24 amplification construct GUS expression in B. napus; type: in vivo, B. napits; details: on SA or BTH induction
Text: as §2, §3

PR-1a promoter-GUS = details: transgenic tobacco, cited from earlier work; for PR-1a promoter-GUS / endogenous PR-1a expression: direct application
PR gene promoters = details: cited from earlier work
barley aPR5 = details: in vivo; cited from earlier work
tobacco leaf tissue = experiment: Visible tissue damage in infiltrated transgenic tobacco leaf panels
Protocol: as §1

[5] = tested on: barley homologue of rice thaumatin-like protein; details: 1 ppm; cited from earlier work

Which results are given for `O=P(O)(O)CCCl` [ethephon]?
AoPRT-L mRNA accumulation (AoPRT-L mRNA): not induced; Induction of extracellular aPR-5 proteins ([1]; 10 mM): induced

Which “Induction of extracellular aPR-5 proteins” value ([1]; 10 mM) does the source give for `O=C(O)Cc1cccc2ccccc12` [NAA] here?
Its value is “induced”.

Which “BTH concentration at which BTH-induced GUS activity is observed” value ([2]; leaf cores floated 3 or 6 days) does the source give for `CSC(=O)c1cccc2nnsc12` [BTH, benzo(1,2,3)thiadiazole-7-carbothoic acid S-methyl ester] here?
Its value is 1.25 µM.

What about the “Induction of AoPRT-L promoter-driven GUS expression by foliar spray” value ([2]; sprayed twice on day 0, 20 μM BTH vs 1 mM SA, leaf cores after 3 or 6 days) of the same compound?
Its value is “as effective an inducer of GUS expression driven by the AoPRT-L promoter as was SA”.

What about the “GUS activity of AoPRT-L-GUS maize on treatment” value (AoPRT-L-GUS) of the same compound?
The value was “exhibited GUS activity”.

And the “GUS activity of pAoPRT-Lx3-GUS plants vs equivalent AoPRT-L-GUS plants” value (AoPRT-Lx3 promoter-GUS)?
The value was “significantly greater level of GUS activity”.

What about the “GUS activity of pGB24 plants vs equivalent AoPRT-L-GUS plants” value [3] of the same compound?
Its value is “significantly greater level of GUS activity”.

What about the “GUS activity of pGB24 plants vs equivalent AoPRT-L-GUS plants” value [4] of the same compound?
The value was “significantly greater level of GUS activity”.

What about the “PR-1a promoter-GUS / endogenous PR-1a expression” value (PR-1a promoter-GUS) of the same compound?
The value was “high levels”.

And the “PR gene expression induced by commercial preparations” value (PR gene promoters; all plants tested including arabidopsis and wheat)?
Its value is “very strong PR gene expression”.

And the “Concentration sufficient to induce PR gene expression” value (PR gene promoters; aqueous solution)?
The value was 1.2 µM.

What about the “Persistence of gene induction” value (PR gene promoters; spraying) of the same compound?
Its value is “at least 10 days”.

What about the “Time of maximal gene induction after application” value (PR gene promoters; spraying) of the same compound?
The value was 2 days.

Which results are given for `CC/C=C\C[C@H]1C(=O)CC[C@@H]1CC(=O)O` [JA, jasmonic acid]?
Induction of AoPRT-L promoter-driven GUS activity in leaf discs ([2]; leaf cores floated 3 days on increasing concentrations, compared with 1 mM SA): failed to induce any increase; Induction of AoPRT-L promoter-GUS by wound signals [2]: not induced; Expression of barley aPR5 (barley aPR5): induces expression

Which “Induced expression of the AoPRT-L-promoter-GUS construct ('Neither ... induced')” value ([2]; in vivo) does the source give for `[Cl-].[Na+]` [salt, NaCl] here?
The value was “Neither”.

What does the source list for `CC(C)(C)OO` [t-butyl-hydroperoxide]?
AoPRT-L-promoter-GUS expression after infiltration of pro-oxidant [2]: no GUS expression was detected; Visible tissue damage after infiltration (tobacco leaf tissue; leaf panels, higher concentrations for t-butyl-hydroperoxide): severe visible tissue damage

Which “Induction of extracellular aPR-5 proteins” value ([1]; 5 mM) does the source give for `CC(=O)Oc1ccccc1C(=O)O` [aspirin, acetyl-SA] here?
The value was “induced”.

Which results are given for `O=C(O)c1ccccc1O` [SA, salicylic acid]?
Time after start of treatment at which induction is observable ([2]; 1 mM SA): 1 days; GUS activity of AoPRT-L-GUS plants as fraction of that in pPR-1a-GUS-transformed tobacco ([2]; SA induction): about ⅓; Induction of AoPRT-L promoter-GUS fusion ([2]; 0.1 mM): little induction; Induction of AoPRT-L promoter-GUS fusion ([2]; 1 mM): Substantial induction; Time-dependent induction of AoPRT-L promoter-GUS fusion [2]: clear time-dependent induction; AoPRT-L mRNA accumulation (AoPRT-L mRNA): accumulation was observed; GUS activity of AoPRT-L-GUS maize on treatment (AoPRT-L-GUS): exhibited GUS activity; GUS activity of pAoPRT-Lx3-GUS plants vs equivalent AoPRT-L-GUS plants (AoPRT-Lx3 promoter-GUS): significantly greater level of GUS activity; GUS activity of pGB24 plants vs equivalent AoPRT-L-GUS plants [3]: significantly greater level of GUS activity; GUS activity of pGB24 plants vs equivalent AoPRT-L-GUS plants [4]: significantly greater level of GUS activity; PR-1a promoter-GUS / endogenous PR-1a expression (PR-1a promoter-GUS): high levels; SA concentration at which PR-1a-GUS is clearly induced (PR-1a promoter-GUS): 10 to 100 µM; Induction of expression of PR gene promoters over basal levels (PR gene promoters; spraying, injection or root-feeding): 50-1000 fold

With `O=C(O)COc1ccc(Cl)cc1Cl` [2,4 D] as the compound, how does the “Induction of extracellular aPR-5 proteins” value ([1]; 10 mM) read?
The value was “induced”.

For `O=C(O)c1ccc(O)cc1` [4hBA, 4-hydroxybenzoic acid], which “Time-dependent induction of AoPRT-L promoter-GUS fusion” value [2] is on record?
Its value is “inactive”.

With `O=C(O)c1cc(Cl)nc(Cl)c1` [INA, dichloroisonicotinic acid] as the compound, how does the “PR-1a promoter-GUS / endogenous PR-1a expression” value (PR-1a promoter-GUS) read?
The value was “high levels”.

And the “Expression of barley homologue of rice thaumatin-like protein” value [5]?
The value was “induces expression”.

For `O=C(O)CC(O)(CC(=O)O)C(=O)O` [citric acid], which “Induction of extracellular aPR-5 proteins” value ([1]; 5 mM) is on record?
The value was “induced”.

Which “Induction of AoPRT-L promoter-GUS by wound signals” value [2] does the source give for `C=C` [ethylene] here?
The value was “not induced”.

Which “Level of induction relative to that observed using SA” value ([2]; ABA induction vs SA) does the source give for `CC1=CC(=O)CC(C)(C)[C@@]1(O)/C=C/C(C)=C\C(=O)O` [ABA, abscisic acid] here?
The value was “an order of magnitude lower”.

What about the “AoPRT-L-promoter-GUS in leaf discs” value ([2]; high concentration of ABA, leaf discs) of the same compound?
The value was “slight increase”.

With `[Cl][Mn][Cl]` [MnCl2] as the compound, how does the “Induction of extracellular aPR-5 proteins” value ([1]; 5 mM) read?
The value was “induced”.

With `O=C(O)C(=O)O` [oxalic acid] as the compound, how does the “Induction of extracellular aPR-5 proteins” value ([1]; 5 mM) read?
Its value is “induced”.

Which “Induction of extracellular aPR-5 proteins” value ([1]; 5 mM) does the source give for `[Cl][Hg][Cl]` [HgCl3] here?
The value was “induced”.

Which results are given for `OO` [H2O2, hydrogen peroxide]?
AoPRT-L-promoter-GUS expression after infiltration of pro-oxidant [2]: failed to induce; Visible tissue damage after infiltration (tobacco leaf tissue; in vivo): no visible symptoms
